{
  "source": "patent US8431524B2",
  "about": "“Peptide antagonist of interleukin-15 activity” (Centro de Ingenieria Genetica y Biotecnologia, priority 2008, dated 2013)",
  "key": {"[1]": {"tested_on": "skin graft from a psoriasis patient", "assay": "Xenotransplant SCID mice model of human psoriasis", "assay_type": "in vivo", "conditions": "10 mg/kg, alternate days for two weeks; for grade of parakeratosis in the psoriatic lesion / keratinocytes' cycles / number of inflammatory cells / thickness of the epidermis: H & E; for severity of the disease: biopsy one week after last injection", "method": "Two to three months-old SCID mice were transplanted with a skin graft of 1.5 cm×1.5 cm from a psoriasis patient. Three weeks after, mice were randomized and distributed in three groups: placebo, mice treated with peptide SEQ ID No. 12 at 10 mg/kg of body weight and cyclosporin A at 10 mg/kg in alternate days for two weeks. One week after the last injection, mice were sacrificed and a 4 mm biopsy was taken from each xenotransplant. Biopsies were fixed in formalin for paraffin embedding, and were stained with hematoxilin and eosin dyes (H & E)."}, "CTLL-2 cell line": {"tested_on": "CTLL-2 cell line", "conditions": "for IC50: 72 h; for activity relative to the original peptide of WO2006/029578 (fold): IL-15-dependent proliferation of CTLL-2; for inhibitory effect of the peptide (in words): from the IC50 values of Table 1", "method": "To evaluate the neutralizing capacity of the peptides of the present invention, serial dilutions of these peptides were carried out in 96-well plates (Costar, USA) in a 25 μL volume of RPMI medium (Gibco) supplemented at 10% with calf fetal serum (Gibco). […]\nIncubation was carried out for 72 h at 37° C. and 5% CO2. […] MTT is reduced to red formazan by the mitochondrial dehydrogenase of live cells."}, "KiT225 cell line": {"tested_on": "KiT225 cell line", "assay": "IL-15-induced proliferation assay of the Kit225 cell line (MTT)", "assay_type": "cell-based, human", "conditions": "IL-15 300 pg/mL, serial dilutions of peptide; FIG. 3", "method": "To evaluate the neutralizing capacity of the peptides of the present invention, serial dilutions of these peptides were carried out in 96-well plates (Costar, USA) in a 25 μL volume of RPMI medium (Gibco) supplemented at 10% with calf fetal serum (Gibco). Previously washed CTLL-2 or KiT225 cells were added at 5×10^3 cells/well and incubated for 30 min, and a saturating amount of 300 pg/mL IL-15 was added per well.\nThe antagonistic activity of the peptides was also evaluated, by varying the concentration of IL-15 at a fix concentration of 260 μM of each peptide. Incubation was carried out for 72 h at 37° C. and 5% CO2. Proliferation was assessed by using the MTT mitochondrial staining method (Cosman et al., Nature 1984, 312: 768-771). MTT is reduced to red formazan by the mitochondrial dehydrogenase of live cells. The IC50 was determined to each peptide at a IL-15 concentration of 300 pg/mL."}, "IL-15Rα subunit": {"biological_target": "IL-15Rα subunit (Homo sapiens, UniProt Q13261)", "sequence (Q13261 31-267)": "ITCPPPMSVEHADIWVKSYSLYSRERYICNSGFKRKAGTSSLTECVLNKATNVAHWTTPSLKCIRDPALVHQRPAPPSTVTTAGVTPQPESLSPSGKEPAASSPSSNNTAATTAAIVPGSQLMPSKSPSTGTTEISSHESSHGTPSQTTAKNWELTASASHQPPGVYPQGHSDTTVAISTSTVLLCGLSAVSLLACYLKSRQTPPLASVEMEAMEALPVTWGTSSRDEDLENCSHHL", "conditions": "IL-15 binding to IL-15Rα; cited from earlier work"}, "human IL-15Rα": {"biological_target": "human IL-15Rα (Homo sapiens, UniProt Q13261)", "sequence (Q13261 31-205 limits assumed)": "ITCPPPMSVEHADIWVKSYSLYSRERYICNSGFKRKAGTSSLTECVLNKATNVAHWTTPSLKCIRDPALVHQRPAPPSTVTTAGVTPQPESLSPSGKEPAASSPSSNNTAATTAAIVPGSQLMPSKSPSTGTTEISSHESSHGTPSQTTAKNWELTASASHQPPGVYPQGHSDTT", "assay": "Competition ELISA, displacement of binding of IL-15 to IL-15Rα", "procedure": "Peptide binding to the IL15-Rα was characterized by ELISA. Briefly, 96-well plates were coated with purified IL-15 in phosphate buffered saline (PBS) and blocked with bovine albumin at 1% in PBS. Dilutions of each peptide were added to the wells and plates were incubated for 1 h at 37° C. The plates were washed with PBS-Tween 20 and incubated with an IL-15Rα-Fc for 1 h at 37° C. Plates were washed again with PBS-Tween 20 and further incubated an anti Fc-human IgG-peroxidase conjugate for 1 h at 37° C. After washing, the antigen-antibody reaction was run by adding the substrate and 3,3′,5,5′-Tetramethylbenzidine (TMB), and O.D. was read at 450 nm."}, "[2]": {"tested_on": "synovial fluid cells of RA patients", "assay": "IL-15-mediated TNFα production in synovial fluid cells of RA patients (ELISA)", "assay_type": "cell-based, human", "conditions": "peptide 50 μg/mL plus IL-15 60 ng/mL, 48 h; heading says peptide as a dimer; FIG. 6", "method": "After obtaining a written informed consent, synovial fluid from RA patients was extracted and incubated with hyaluronidase at 10 μg per mL of fluid for 45 min at 37° C. Synovial fluid cells were obtained after centrifugation at 1200 rpm for 10 min.\nCells were incubated in 96-well plated at 2×10^5 cells per well with 50 μg/mL of peptide and 60 ng/mL of IL-15 and also a combination of peptide plus IL-15. After incubation for 48 h, supernatants were collected and stored at −70° C. until evaluation. The amount of TNFα was quantified by EL ISA (R&D DTA50)."}, "[3]": {"tested_on": "prostate cancer cell line PC-3", "assay": "IL-15Rα-induced IL-6 and IL-8 mRNA expression in PC-3 cells (real time RT-PCR)", "assay_type": "cell-based", "conditions": "peptide 100 μg/mL, IL15-Rα 1 ng/mL", "method": "The experiment was carried out in 24-well plates by incubating 1.5×10^6 cells with peptides SEQ ID No. 1 and SEQ ID No. 12 at 100 μg/mL and IL15-Rα (1 ng/mL), and also combinations of IL15-Rα and peptides SEQ ID No. 1 and SEQ ID No. 12.\nThe RNA was isolated by the TriReagent method (Sigma) and analyzed by measuring the O.D. 260/280 nm ratio and Agarose gel electrophoresis. The real time reverse transcription and polymerase chain reaction were carried out by using the Quantitect Reverse Transcription Kit and QuantiTect SYBR Green PCR (QIAGEN) in a Rotor Gene 6000 equipment."}, "[4]": {"tested_on": "CTLL-2 cell line and peripheral blood mononuclear cells (PBMC)", "conditions": "CTLL-2 cell line and PBMC; cited from earlier work"}},
  "note": "Read-outs that look alike come from different tables or passages of the source. Positions of bridges follow the written chain, without caps; N, C: chain ends. Residues, ends and D or L forms follow the SMILES beside them. Chains are numbered I, II in the order given. No end group written: not given here.",
  "data": [
    {"molecule": "CSCC[C@H](NC(=O)[C@H](C)NC(=O)[C@@H](NC(=O)[C@@H](NC(=O)[C@@H](N)CCCCN)C(C)C)[C@@H](C)O)C(=O)N[C@H](C(=O)N[C@@H](CSSC[C@H](NC(=O)[C@@H](NC(=O)[C@H](CCSC)NC(=O)[C@H](C)NC(=O)[C@@H](NC(=O)[C@@H](NC(=O)[C@@H](N)CCCCN)C(C)C)[C@@H](C)O)[C@@H](C)O)C(=O)N[C@@H](Cc1ccccc1)C(=O)N[C@@H](CC(C)C)C(=O)N[C@@H](CC(C)C)C(N)=O)C(=O)N[C@@H](Cc1ccccc1)C(=O)N[C@@H](CC(C)C)C(=O)N[C@@H](CC(C)C)C(N)=O)[C@@H](C)O", "note": "[SEQ ID No. 12 dimer] (I: H-KVTAMTCFLL-NH2 / II: H-KVTAMTCFLL-NH2; disulfide I:7-II:7 (inferred); N-terminus assumed)", "values": [
      {"measurement": "grade of parakeratosis in the psoriatic lesion", "setting": "[1]", "result": "lowered grade"},
      {"measurement": "keratinocytes' cycles", "setting": "[1]", "result": "significantly decreased"},
      {"measurement": "number of inflammatory cells", "setting": "[1]", "result": "significantly decreased"},
      {"measurement": "thickness of the epidermis", "setting": "[1]", "result": "significant reduction"},
      {"measurement": "severity of the disease", "setting": "[1]", "result": "reduction in the severity of the disease"},
      {"measurement": "IC50", "setting": "CTLL-2 cell line", "result": 8, "unit": "µM"},
      {"measurement": "activity relative to the original peptide of WO2006/029578 (fold)", "setting": "CTLL-2 cell line", "result": 15},
      {"measurement": "activity of the dimer relative to the monomer (fold)", "setting": "CTLL-2 cell line; dimer linked through the free Cys", "result": "seven times more active"},
      {"measurement": "inhibitory effect on IL-15-induced proliferation of Kit225", "setting": "KiT225 cell line", "result": "higher inhibitory effect"}
    ]},
    {"molecule": "IL-15: 14-15 kDa cytokine, T cell activating factor", "values": [
      {"measurement": "Kd", "setting": "IL-15Rα subunit", "result": 10, "unit": "pM"}
    ]},
    {"molecule": "KATAMKCFLL-NH2 [KATAMKCFLL]", "values": [
      {"measurement": "IC50", "setting": "CTLL-2 cell line", "result": 130, "unit": "µM"}
    ]},
    {"molecule": "KVAAMKCFLL-NH2 [KVAAMKCFLL]", "values": [
      {"measurement": "IC50", "setting": "CTLL-2 cell line", "result": 130, "unit": "µM"}
    ]},
    {"molecule": "KVTAAKCFLL-NH2 [KVTAAKCFLL]", "values": [
      {"measurement": "IC50", "setting": "CTLL-2 cell line", "result": 130, "unit": "µM"}
    ]},
    {"molecule": "KVTAMECFLL", "values": [
      {"measurement": "activity relative to the original peptide of WO2006/029578 (fold)", "setting": "CTLL-2 cell line", "result": "ten-fold"},
      {"measurement": "inhibitory effect of the peptide (in words)", "setting": "CTLL-2 cell line", "result": "loss of the inhibitory effect"}
    ]},
    {"molecule": "KVTAMKAFLL", "values": [
      {"measurement": "displacement of binding of IL-15 to IL-15Rα", "setting": "human IL-15Rα; ELISA, IL-15 coated plate, IL-15Rα-Fc, FIG. 2", "result": "does not displace"},
      {"measurement": "inhibitory effect of the peptide (in words)", "setting": "CTLL-2 cell line", "result": "loss of the inhibitory effect"}
    ]},
    {"molecule": "KVTAMKCFAL-NH2 [KVTAMKCFAL]", "values": [
      {"measurement": "IC50", "setting": "CTLL-2 cell line", "result": 200, "unit": "µM"}
    ]},
    {"molecule": "KVTAMKCFLA-NH2 [KVTAMKCFLA]", "values": [
      {"measurement": "IC50", "setting": "CTLL-2 cell line", "result": 260, "unit": "µM"}
    ]},
    {"molecule": "KVTAMKCFLL-NH2 [KVTAMKCFLL, reference compound]", "values": [
      {"measurement": "IC50", "setting": "CTLL-2 cell line", "result": 130, "unit": "µM"}
    ]},
    {"molecule": "KVTAMKSFLL", "values": [
      {"measurement": "inhibitory effect of the peptide (in words)", "setting": "CTLL-2 cell line", "result": "loss of the inhibitory effect"}
    ]},
    {"molecule": "KVTAMTCFLL-NH2 [KVTAMTCFLL]", "values": [
      {"measurement": "grade of parakeratosis in the psoriatic lesion", "setting": "[1]", "result": "lowered grade"},
      {"measurement": "keratinocytes' cycles", "setting": "[1]", "result": "significantly decreased"},
      {"measurement": "number of inflammatory cells", "setting": "[1]", "result": "significantly decreased"},
      {"measurement": "thickness of the epidermis", "setting": "[1]", "result": "significant reduction"},
      {"measurement": "severity of the disease", "setting": "[1]", "result": "reduction in the severity of the disease"},
      {"measurement": "capacity to bind to the IL-15Rα", "setting": "human IL-15Rα", "result": "retains the capacity to bind to the IL-15Rα"},
      {"measurement": "IC50", "setting": "CTLL-2 cell line", "result": 24.6, "unit": "µM"},
      {"measurement": "activity relative to the original peptide of WO2006/029578 (fold)", "setting": "CTLL-2 cell line; listed as Lys-Thr mutant", "result": "five-fold"},
      {"measurement": "antagonistic activity at varying IL-15 concentration", "setting": "CTLL-2 cell line; fixed peptide concentration 260 μM, IL-15 75, 150, 300 pg/mL, FIG. 4", "result": "dependence of the antagonistic activity"},
      {"measurement": "TNFα secretion", "setting": "[2]", "result": "inhibits TNFα secretion"},
      {"measurement": "inhibitory effect on IL-15-induced proliferation of Kit225", "setting": "KiT225 cell line", "result": "inhibitory effect depending on the concentration of the peptide"},
      {"measurement": "IL15-Rα-mediated transcription of IL-8", "setting": "[3]; FIG. 5A", "result": "inhibits transcription"},
      {"measurement": "IL15-Rα-mediated transcription of IL-6", "setting": "[3]; FIG. 5B", "result": "inhibits transcription"}
    ]},
    {"molecule": "KVTAMTCYLL-NH2 [KVTAMTCYLL]", "values": [
      {"measurement": "IC50", "setting": "CTLL-2 cell line", "result": 57.7, "unit": "µM"}
    ]},
    {"molecule": "146B7: Genmab antibody specific for IL-15, targets the region interacting with IL-15Rγ (antibody, chains of the INN, looked up, V domains shown) VH: EVQLVQSGAEVKKPGESLKISCKVSGYFFTTYWIGWVRQMPGKGLEYMGIIYPGDSDTRYSPSFQGQVTISADKSISTAYLQWSSLKASDTAMYYCARGGNWNCFDYWGQGTLVTVSS VL: EIVLTQSPGTLSLSPGERATLSCRASQSVSSSYLAWYQQKPGQAPRLLIYGASRRATGIPDRFSGSGSGTDFTLTISRLEPEDFAVYYCQRYGSSHTFGQGTKLEIS", "values": [
      {"measurement": "inhibition of IL-15-induced cell proliferation", "setting": "[4]", "result": "inhibit the IL-15-induced cell proliferation"}
    ]}
  ]
}
